# Laboratory results taken from patent US12286632B2, “Rationally-designed synthetic peptide shuttle agents for delivering polypeptide cargos from an extracellular space to the cytosol and/or nucleus of a target eukaryotic cell, uses thereof, methods and kits relating to same” (Feldan Bio Inc., priority 2016, dated 2025).
# Experiments:
# HeLa cells [1] = test: Plasmid DNA (pEGFP-C1) transfection by peptides (% cells with GFP signal, cell viability); conditions: DNA transfection in HeLa cells using peptides; pEGFP-C1 plasmid
# CHO cells = test: GFP-NLS transduction in different adherent and suspension cells (flow cytometry, Pos cells % and viability %); format: cell-based, Chinese hamster; conditions: Protocol B, 35 μM shuttle, 5 μM GFP-NLS, 10 seconds
# Method: (§1) The media in wells was removed, cells were washed once with PBS previously warmed at 37° C., and the shuttle agent/cargo mixture was then added to cover all cells for the desired length of time. The shuttle agent/cargo mixture in wells was removed, the cells were washed once with PBS, and fresh complete medium was added. Before analysis, the cells were washed once with PBS and fresh complete medium was added.
# (§2) The ability of the shuttle agent His-CM18-PTD4 to deliver GFP-NLS to the nuclei of different adherent and suspension cells using Protocols B (adherent cells) or C (suspension cells) as described in Example 9.1 was examined. The cell lines tested included: HeLa, Balb3T3, HEK 293T, CHO, NIH3T3, Myoblasts, Jurkat, THP-1, CA46, and HT2 cells, which were cultured as described in Example 1. GFP-NLS (5 μM; see Example 5.1) was co-incubated with 35 μM of His-CM18-PTD4 and exposed to adherent cells for 10 seconds (Protocol B), or was co-incubated with 5 μM of His-CM18-PTD4 and exposed to suspension cells for 15 seconds (Protocol C). […] “Pos cells (%)” is the mean percentages of all cells that emanate a GFP signal.
# HeLa cells [2] = test: GFP-NLS protein transduction assay (flow cytometry: Pos cells %, viability %, relative fluorescence intensity; microscopy); conditions: for Relative fluorescence intensity (FL1-A) (n = 3): Table 10.3, Protocol C
# HeLa cells [3] = test: FITC-labeled anti-tubulin antibody transduction assay (flow cytometry, cell viability, microscopy); conditions: antibody 0.5 μM; shuttle 50 μM; 10 seconds, Protocol B
# Method: The delivery and microscopy protocols are described in Example 3.
# HeLa cells were cultured and tested in the protein transduction assay described in Example 3.1. […] The cells were subjected to flow cytometry analysis as described in Example 3.3.
# HeLa cells [4] = test: Transfection plasmid surrogate assay for delivered CRISPR/Cas9-NLS complex (mCherry/GFP fluorescence); format: cell-based, Human; conditions: shuttle 35 μM; 24 and 48 hours post-transduction
# Source text: This assay enables one to visually identify cells that have been successfully delivered an active […]as9 complex. […] Transfection of the cells with the expression plasmid results in mCherry™ expression, but no GFP expression (FIG. 39B). […] Successful transduction of an active CRISPR/Cas9 complex results in the CRISPR/Cas9 complex cleaving the plasmid DNA at the STOP codon (FIG. 39C). In a fraction of the cells, random non-homologous DNA repair of the cleaved plasmid occurs and results in removal of the STOP codon, and thus GFP expression and fluorescence (FIG. 39E).
# On Day 1 of the transfection plasmid surrogate assay, DNA plasmids for different experimental conditions (250 ng) are diluted in DMEM (50 μL) in separate sterile 1.5-mL tubes, vortexed and briefly centrifuged. In separate sterile 1.5-mL tubes, Fastfect™ transfection reagent was diluted in DMEM (50 μL) with no serum and no antibiotics at a ratio of 3:1 (3 μL of Fastfect™ transfection reagent for 1 μg of DNA) and then quickly vortexed and briefly centrifuged. The Fastfect™/DMEM mixture was then added to the DNA mix and quickly vortexed and briefly centrifuged. The Fastfect™/DMEM/DNA mixture is then incubated for 15-20 min at room temperature, before being added to the cells (100 μL per well). The cells are then incubated at 37° C. and 5% CO2 for 5 h. […]
# CA46 cells = test: GFP-NLS transduction in different adherent and suspension cells (flow cytometry, Pos cells % and viability %); format: cell-based, Homo sapiens; conditions: Protocol C, 5 μM shuttle, 5 μM GFP-NLS, 15 seconds
# Method: as §2
# HeLa cells [5] = test: GFP-NLS and mCherry-NLS co-transduction, visualization by microscopy; format: cell-based, Human; conditions: each cargo 5 μM; shuttle 35 μM; 10 seconds, Protocol B
# Method: as §1
# • GFP-NLS recombinant protein (5 μM; see Example 5.1) and mCherry™-NLS recombinant protein (5 μM) were co-incubated together with 35 μM of His-CM18-PTD4, and then exposed to HeLa cells for 10 seconds using Protocol B as described in Example 9.1. After washing steps, the cells were immediately visualized by bright field and fluorescence microscopy at 20× magnifications as described in Example 3.2. Sample results are shown in FIG. 28, in which corresponding images showing bright field (FIG. 28A), DAPI fluorescence (FIG. 28B), GFP-NLS fluorescence (FIG. 28C), and mCherry™-NLS fluorescence (FIG. 28D) are shown. White triangle windows indicate examples of areas of co-labelling between GFP-NLS and mCherry™ fluorescence signals in cell nuclei. […] 9.7 GFP-NLS Transduction by his-CM18-PTD4 in THP-1 Suspension Cells: Flow Cytometry
# Jurkat cells = test: GFP-NLS transduction in different adherent and suspension cells (flow cytometry, Pos cells % and viability %); format: cell-based, Human; conditions: Protocol C, 5 μM shuttle, 5 μM GFP-NLS, 15 seconds
# Method: as §2
# [6] = HeLa, Protocol B, 35 μM shuttle, 5 μM GFP-NLS, 10 seconds
# [7] = Table 10.3a, Protocol B, HeLa, shuttle 50 μM, GFP-NLS 5 μM, 10 seconds
compound,measurement,setting,value
CC[C@H](C)[C@H](NC(=O)[C@H](CCCCN)NC(=O)[C@H](CCCCN)NC(=O)[C@H](Cc1ccccc1)NC(=O)[C@H](CC(C)C)NC(=O)[C@H](CCCCN)NC(=O)[C@H](Cc1c[nH]c2ccccc12)NC(=O)[C@H](CCCCN)NC(=O)[C@H](Cc1c[nH]cn1)NC(=O)[C@H](Cc1c[nH]cn1)NC(=O)[C@H](Cc1c[nH]cn1)NC(=O)[C@H](Cc1c[nH]cn1)NC(=O)[C@H](Cc1c[nH]cn1)NC(=O)[C@@H](N)Cc1c[nH]cn1)C(=O)NCC(=O)N[C@@H](C)C(=O)N[C@H](C(=O)N[C@@H](CC(C)C)C(=O)N[C@@H](CCCCN)C(=O)N[C@H](C(=O)N[C@@H](CC(C)C)C(=O)N[C@H](C(=O)N[C@H](C(=O)NCC(=O)N[C@@H](Cc1ccc(O)cc1)C(=O)N[C@@H](C)C(=O)N[C@@H](CCCNC(=N)N)C(=O)N[C@@H](C)C(=O)N[C@@H](C)C(=O)N[C@@H](C)C(=O)N[C@@H](CCCNC(=N)N)C(=O)N[C@@H](CCC(N)=O)C(=O)N[C@@H](C)C(=O)N[C@@H](CCCNC(=N)N)C(=O)N[C@@H](C)C(=O)O)[C@@H](C)O)[C@@H](C)O)C(C)C)C(C)C [His-CM18-PTD4],Mean % cells with GFP signal (±St. Dev.; n = 3),HeLa cells [1],0.04 ± 0.01%
same,Cell viability (%) (±St. Dev.; n = 3),CHO cells,92.8 ± 0.1%
same,Mean % cells with GFP signal (±St. Dev.; n = 3),CHO cells,53.7 ± 4.6%
same,Cell viability (%) (±St. Dev.; n = 3),HeLa cells [2]; [6],94.6 ± 0.4%
same,Mean % cells with GFP signal (±St. Dev.; n = 3),HeLa cells [2]; [6],72.3 ± 5.3%
same,Mean % cells with GFP signal (±St. Dev.; n = 3),"HeLa cells [2]; Table 9.1, Protocol A, HeLa, shuttle 10 μM, GFP-NLS 5 μM, 1 hour",25.4 ± 3.6%
same,Mean % cells with GFP signal (±St. Dev.; n = 3),"HeLa cells [2]; Table 9.1, Protocol B, HeLa, shuttle 35 μM, GFP-NLS 5 μM, 10 seconds",78.3 ± 5.3%
same,Mean % cells with GFP signal (±St. Dev.; n = 3),"HeLa cells [2]; Table 9.2, Protocol B, HeLa, shuttle 10 μM, GFP-NLS 5 μM, 10 seconds",25.3 ± 3.6%
same,Mean % cells with GFP signal (±St. Dev.; n = 3),"HeLa cells [2]; Table 9.2, Protocol B, HeLa, shuttle 25 μM, GFP-NLS 5 μM, 10 seconds",62.1 ± 6.1%
same,Mean % cells with GFP signal (±St. Dev.; n = 3),"HeLa cells [2]; Table 9.2, Protocol B, HeLa, shuttle 35 μM, GFP-NLS 5 μM, 10 seconds",77.7 ± 7.8%
same,Mean % cells with GFP signal (±St. Dev.; n = 3),"HeLa cells [2]; Table 9.2, Protocol B, HeLa, shuttle 50 μM, GFP-NLS 5 μM, 10 seconds",73.2 ± 5.2%
same,Mean % cells with GFP signal (±St. Dev.; n = 3),"HeLa cells [2]; Table 10.1, Protocol B, HeLa, shuttle 50 μM, GFP-NLS 5 μM, 10 seconds",68 ± 2.2%
same,Mean % cells with GFP signal (±St. Dev.; n = 3),"HeLa cells [2]; Table 10.2, Protocol B, HeLa, shuttle 10 μM, GFP-NLS 5 μM, incubation 1 min.",50.6 ± 3.5%
same,Mean % cells with GFP signal (±St. Dev.; n = 3),"HeLa cells [2]; Table 10.2, Protocol B, HeLa, shuttle 10 μM, GFP-NLS 5 μM, incubation 2 min.",74 ± 3.3%
same,Mean % cells with GFP signal (±St. Dev.; n = 3),"HeLa cells [2]; Table 10.2, Protocol B, HeLa, shuttle 10 μM, GFP-NLS 5 μM, incubation 5 min.",82.7 ± 5.0%
same,Relative fluorescence intensity (FL1-A) (n = 3),"HeLa cells [2]; HeLa, shuttle 10 μM, GFP-NLS 5 μM, incubation 1 min.",524 151
same,Relative fluorescence intensity (FL1-A) (n = 3),"HeLa cells [2]; HeLa, shuttle 10 μM, GFP-NLS 5 μM, incubation 2 min.",755 624
same,Relative fluorescence intensity (FL1-A) (n = 3),"HeLa cells [2]; HeLa, shuttle 10 μM, GFP-NLS 5 μM, incubation 5 min.",173 930
same,Cell viability (%) (±St. Dev.; n = 3),HeLa cells [2]; [7],92 ± 3.6%
same,Mean % cells with GFP signal (±St. Dev.; n = 3),HeLa cells [2]; [7],68 ± 2.2%
same,Mean % cells with GFP signal (±St Dev.; n = 3),"HeLa cells [2]; Table 10.3e, Protocol B, HeLa, shuttle 20 μM, GFP-NLS 5 μM, 1 minute",60.3 ± 3.2%
same,GFP-NLS transduction efficiency,"HeLa cells [2]; peptide 20 μM, GFP-NLS 5 μM, 1 minute, Protocol B (Table 10.3e)",60%
same,"GFP-NLS delivery (microscopy, in words)","HeLa cells [2]; shuttle 35 μM, GFP-NLS 5 μM, 10 seconds, Protocol B",successfully transduced and delivered to the nucleus and/or the cytosol
same,time by which GFP-NLS is delivered to the nucleus,"HeLa cells [2]; shuttle 50 μM, GFP-NLS 5 μM, exposed 10 seconds, Protocol B, microscopy",≤ 2 min
same,"antibody delivery (microscopy, in words)",HeLa cells [3],successfully transduced and delivered to the nucleus and/or the cytosol
same,GFP expression after CRISPR/Cas9-NLS cleavage of plasmid surrogate,HeLa cells [4],"GFP fluorescence, the latter resulting from removal of the STOP codon by the transduced CRISPR/Cas9-NLS complex"
same,Cell viability (%) (±St. Dev.; n = 3),CA46 cells,71.6 ± 1.0%
same,Mean % cells with GFP signal (±St. Dev.; n = 3),CA46 cells,24.4 ± 0.6%
same,co-delivery of GFP-NLS and mCherry-NLS (microscopy),HeLa cells [5],successfully delivered together to the nucleus
same,Cell viability (%) (±St. Dev.; n = 3),Jurkat cells,73.6 ± 0.7%
same,Mean % cells with GFP signal (±St. Dev.; n = 3),Jurkat cells,30.7 ± 2.2%
